Test system: E. multilocularis metacestodes
Test: PGI assay: phosphoglucose isomerase release from damaged metacestodes
Type: cell-based, Echinococcus multilocularis
Conditions: 10 μM, 5 days, single wells, relative to DB1127 (10 μM)
Method: The preparation of E. multilocularis metacestode material (strain H95) from intraperitoneally (i.p.) infected BALB/c mice was performed as described earlier. Metacestode vesicles were used for in vitro drug screening when they reached 2 to 4 mm in diameter.
For screening of the Malaria Box against E. multilocularis metacestodes, the PGI screening assay was applied that measures the release of the enzyme phosphoglucose isomerase (PGI) upon physical impairment of metacestodes. The screening setup was done in 24 well plates as described by Stadelmann et al. For initial screening, each drug was applied at 10 μM to metacestodes in single wells. As a positive control-drug, the dicationic diguanidino compound DB1127 (10 μM) was used and 0.1% DMSO was added as negative control. Metacestodes were cultured in the presence of the compounds for 5 days, after which PGI release was quantified exactly as stated in Stadelmann et al. […] Averages, standard deviations and EC50 values were calculated in Microsoft Excel 2010.

Compound	PGI (% of DB1127 at 10 uM) [%]
CCOC(=O)C1=C(C)N=c2sc(=Cc3ccccc3O)c(=O)n2C1c1ccc(OC)c2ccccc12 (stereo not shown) [MMV666604]	-9.67
CCOc1cc(Cl)c(C(C)NC(=O)c2ccccc2)cc1OCC (stereo not shown) [MMV665800]	-123.29
CCCCNc1nc(NC(C)(C)C)nc(NC(C)(C)C)n1 [MMV665864]	-36.23
CC(NCc1ccccc1)c1cc(Cl)ccc1O (stereo not shown) [MMV665789]	-38.95
Cc1ccc(C2CC(C(F)(F)F)n3nc(C(=O)N4CCN(C(c5ccccc5)c5ccccc5)CC4)cc3N2)cc1 (stereo not shown) [MMV000699]	-1.50
CCCCCCOC(=O)C1=C(C)NC(=O)NC1c1ccccc1F (stereo not shown) [MMV007686]	-24.58
Cc1ccc(CN2CCC(C(=O)Nc3ccc(-c4cc5ccccc5[nH]4)cc3)CC2)o1 [MMV666071]	-52.95
O=C(Nc1ccccc1O)c1ccc(-c2ccc(Cl)cc2Cl)o1 [MMV665948]	-40.46
CC(=O)NCCc1nc2ccccc2n1Cc1ccc(C(C)C)cc1 [MMV007617]	-2.63
CN(C)c1ccc(-c2nc3ccc(N)cc3[nH]2)cc1 [MMV666102]	-14.14
Oc1ccccc1CN1CCC2(CCCN(Cc3ccccc3F)C2)C1 (stereo not shown) [MMV666116]	-7.59
CC1CCN(Cc2c(O)ccc3cc(-c4nc5ccccc5s4)c(=O)oc23)CC1 [MMV009127]	0.35
c1ccc(Cn2c(N=Nc3c(Nc4ccccc4)ccc4ccccc34)nc3ccccc32)cc1 [MMV666023]	-50.58
Cc1sc(NC(=O)c2ccccc2)c(C(c2cccs2)N2CCN(c3ccccc3)CC2)c1C (stereo not shown) [MMV396652]	-26.88
O=C1c2ccc3c4c(ccc(c24)C(=O)N1CCCCO)C(=O)N(CCCCO)C3=O [MMV009085]	-6.63
c1ccc(-c2ccc(-c3nc4ccccc4[nH]3)cc2)cc1 [MMV665891]	-89.45
COc1cccc(O)c1CN1CCC2(CCCN(Cc3ccc(F)cc3)C2)C1 (stereo not shown) [MMV666061]	-20.69
Cc1ccc(-c2cc3c(SCC(=O)Nc4cc(C(F)(F)F)ccc4Cl)nccn3n2)cc1 [MMV396680]	-41.44
COc1cc2c(cc1OC)C1=NNC(=O)C1=NC(C)(C)C2 [MMV084940]	-19.88
CC(C)(C)c1ccc(C(=O)Nc2c3c(nn2-c2cccc(Cl)c2)CSC3)cc1 [MMV666123]	-7.56
COc1ccc2nc(N)nc(C)c2c1 [MMV665897]	-26.21
Nc1nc(Nc2cccc(F)c2)nc2ccccc12 [MMV080034]	-19.84
Cc1ccc(CSCc2ccc(C(=O)NC3CC3)o2)cc1 [MMV007571]	-9.42
Cn1c(=O)c2cc(C(=O)NCCCN3CCCCCC3)sc2c2ccccc21 [MMV019313]	-53.66

Compound	PGI (% of DB1127 at 10 uM) [%]
CN1CCN(c2ncnc3c2[nH]c2ccc(Cl)cc23)CC1 [MMV396704]	-24.85
FC(F)(F)c1cccc(CNC2CCN(CCc3ccccc3)CC2)c1 [MMV665979]	-152.47
CCN(Cc1ccccc1)C1CCN(Cc2cc(Br)ccc2O)CC1.O=C(O)C(=O)O [MMV019127]	-5.90
CCOc1ccc(Nc2ccnc3cc(Cl)ccc23)cc1 [MMV007285]	-9.06
Cc1cc(NC(=O)c2ccc(-c3ccccc3)cc2)no1 [MMV018984]	6.32
Cc1ccc2c(C)nc(Nc3nc(C)cc(-c4ccccc4)n3)nc2c1 [MMV007041]	-2.18
O=[N+]([O-])c1ccc(C=NNc2nc3ccccc3[nH]2)cc1 [MMV666607]	-48.05
CCOc1ccc2nc(C)cc(Nc3ccc(Br)cc3)c2c1 [MMV006522]	30.79
COc1cccc(Cn2c(Oc3ccccc3)nc3c2c(=O)n(C)c(=O)n3C)c1 [MMV396705]	-23.91
COc1cc(OC)c(N(C)C(=O)c2cc3c(s2)-c2ccccc2S(=O)(=O)C3)cc1Cl [MMV006427]	-47.62
Cc1cc(N2CCN(C3CCCC3)CC2)n2c(nc3ccccc32)c1C#N [MMV006706]	-7.43
CC1=C(CC(=O)c2cccc([N+](=O)[O-])c2)C(=O)c2ccccc2C1=O [MMV666125]	-2.81
O=C(NC1CCN(Cc2ccccc2)CC1)c1cc(C(=O)NC2CCN(Cc3ccccc3)CC2)cc(C(=O)NC2CCN(Cc3ccccc3)CC2)c1 [MMV019881]	9.54
Cc1cc(=O)oc2c1ccc1oc(C(=O)c3ccccc3)c(C)c12 [MMV006753]	-7.57
OC(CNC1CCCCC1)Cn1c2ccccc2c2ccccc21 (stereo not shown) [MMV009063]	29.02
O=C1c2ccccc2-c2nnc(-c3ccc(Br)cc3)cc21 [MMV665934]	-7.23
CCN1CCN(c2c(C(=O)c3ccccc3)cnc3cc(OC)c(OC)cc23)CC1 [MMV008474]	-15.22
O=C(CCc1ccco1)NC1CCN(CC2(c3ccc(Cl)cc3)CCC2)CC1 [MMV666108]	-18.89
Oc1ccc(-c2nc(-c3ccc4oc5ccc(-c6[nH]c(-c7ccc(O)cc7)nc6-c6ccccc6)cc5c4c3)c(-c3ccccc3)[nH]2)cc1 [MMV000753]	-5.15
CCN1CCN(c2cc(C)c3cc(NC(=O)c4ccc(OC)c(OC)c4)ccc3n2)CC1 [MMV019074]	-7.35
CC1CCCCN1CCCNC(=O)c1ccc2c(c1)sc1nc(-c3ccc(F)cc3)cn12 (stereo not shown) [MMV000634]	-120.82
CCOc1ccc2c(c1)CN(Cc1ccc(Cl)cc1)CO2 [MMV000443]	-40.44
Cc1ccc(Cn2c(N3CCC(C(=O)NCc4cccs4)CC3)nc3ccccc32)cc1 [MMV007564]	-118.82
CC(=O)c1sc(NC(=O)Nc2ccc(C)cc2C)nc1C [MMV665894]	-2.69

Compound	PGI (% of DB1127 at 10 uM) [%]
O=C(CSc1ccc2nnc(-c3cccc(F)c3)n2n1)Nc1ccc2c(c1)OCO2 [MMV665918]	-24.34
CNCCCNc1ccnc2cc(Cl)ccc12 [MMV020500]	-31.62
CC(C)(C)c1ccc(O)c(CNC2CCCCC2)c1 [MMV665785]	1.27
CCOC(=O)C1CCN(C(=O)CN2C(=O)c3ccccc3C2c2c[nH]c3ccccc23)CC1 (stereo not shown) [MMV011576]	-33.19
CC1CCN(Cc2ccc(NC(=O)c3cc4ccc5cccnc5c4[nH]3)cc2)CC1 [MMV020549]	-59.67
Oc1c(CN2CCN(c3ccccc3F)CC2)cc(Br)c2cccnc12 [MMV000760]	-8.56
Fc1ccc2[nH]c3c(NCCCN4CCOCC4)ncnc3c2c1 [MMV019871]	-31.05
O=C(Nc1ccc(N2CCCCC2)c(Cl)c1)c1ccc(Br)o1 [MMV019700]	-40.52
COc1ccc(N2CCN(C(CNC(=O)CC(C)(C)C)c3ccc4c(c3)OCO4)CC2)cc1 (stereo not shown) [MMV665908]	-6.01
CC(C)(C)CC(C)(C)NCC(O)COc1ccc(Cl)cc1Cl (stereo not shown) [MMV396794]	97.35
O=C(Nc1ccccc1O)c1ccc(Oc2cccc(C(=O)Nc3ccccc3O)c2)cc1 [MMV665888]	-15.91
Cl.Clc1cc(Br)ccc1-c1ccc(CNCC2CCNCC2)o1 [MMV019918]	-10.89
N=c1c2ccccc2nnn1-c1cccc(C(F)(F)F)c1 [MMV665923]	18.29
COc1ccc(C(=O)Nc2nonc2-c2ccc(OC)c(OC)c2)cc1Cl [MMV011567]	-5.45
Cc1ccc(F)cc1NC(=O)c1cc(Cl)ccc1Nc1ccccc1 [MMV007275]	1.44
Cl.Oc1ccccc1CNCC12CC3CC(CC(C3)C1)C2 [MMV020788]	-57.58
Cc1cc(Nc2ccc(Cl)cc2)n2nc(C(F)(F)F)nc2n1 [MMV011256]	-32.20
O=c1c2c([nH]c3ccccc13)CCCC2 [MMV665843]	-19.31
CC(=O)c1ccc(NC(=O)CSc2nc(-c3ccccc3Cl)ns2)cc1 [MMV666124]	-5.85
CCn1c(SCC(=O)Nc2cc(C(F)(F)F)ccc2Cl)nc2ccccc2c1=O [MMV666103]	-111.41
COc1ccc(CCN2C(=O)c3[nH]nc(-c4cc(Cl)c(C)cc4O)c3C2c2ccccc2F)cc1 (stereo not shown) [MMV396717]	-12.02
COc1ccc(-c2nc(N3CCN(C(=O)C4CCCCC4)CC3)c3c4c(sc3n2)CCCC4)cc1 [MMV396594]	-22.30

Reference: paper PMC4788259 (PLoS Neglected Tropical Diseases, 2016)
